For two compounds, cytotoxicity and parasitemia results are on record in patent EP2756852A1, “Heparin-lipidic nanoparticle conjugates” (Centre de Recerca en Salut Internacional de Barcelona, priority 2013, dated 2014).

SMILES strings stand for the structures. Entries after “also recorded” stand apart in the source; their conditions may differ.

The subject of one data set is healthy cells. As to the kind of experiment: Unspecific cytotoxicity assay (WST-1). Type of data set: cell-based. Particulars: DOTAP concentration up to 200 µM; 24 or 48 h at 37°C; WST-1, absorbance at 440 nm. On the procedure: Cells were seeded in 96-well plates at a density of 5000 cells/100 µl/well, and incubated for 24 hours at 37°C in Medium 199 with Earle's Salts, supplemented with L-glutamine and FBS (PAA Laboratories GmbH). After that time the medium was carefully removed with a pipette and 90 µL of new medium (without FBS in this case) were added, followed by 10 µL of the sample to be analysed, which consisted of a solution of DOTAP 200 µM in PBS. It is advisable to prepare the sample dilutions in a 9:1 proportion (9 µl media:1 µl sample). After incubating for either 24 or 48 h at 37°C, 10 µL of WST-1 reagent were added, and after incubating for 1 h at 37°C absorbance at 440 nm was measured.
A general note: Tetrazolium dyes change colour on reduction, which living cells bring about.

The next data set concerns P. falciparum 3D7 strain. Nature of the data set: Plasmodium falciparum growth inhibition assay (parasitemia by blood smear counting or FACS). As to conditions: expressed with respect to non-treated pRBC, 48 h, liposomes 50 µM total lipid, primaquine 3 µM final in culture. It counts as cell-based. The protocol:
For culture maintenance, parasitemias were kept below 5% late forms by dilution with washed RBCs.
150 µL of this Plasmodium culture was plated in 96-well plates and incubated in the presence of liposomes for 48 h in the conditions described above.
Parasitemia was determined by microscopic counting of blood smears, or by fluorescence-assisted cell sorting (FACS). Smears were fixed in methanol for a few seconds and then stained for ten minutes with Giemsa (Merck Chemicals, Germany) diluted 1:10 in Sorenson's Buffer, pH 7.2. […] Samples were analyzed using an Epics XL flow cytometer (Coulter Corporation, Miami, Florida), set up with the standard configuration. Excitation of the sample was done using a standard 488 nm air-cooled argon-ion laser at 15 mW power. Forward scatter and side scatter were used to gate the RBC population. […] The single-cell population was selected on a forward-side scatter scattergram, and the fluorescence from this population was analyzed. Parasitemia was expressed as the number of parasitized cells per 100 erythrocytes.
Parasitemia was determined by microscopic counting of blood smears, or by fluorescence-assisted cell sorting (FACS).

For the compound `CCCCCCCC/C=C\CCCCCCCC(=O)OCC(C[N+](C)(C)C)OC(=O)CCCCCCC/C=C\CCCCCCCC` (stereo not shown) [DOTAP, 1,2-dioleoyl-3-trimethylammonium-propane], the cytotoxicity entry in the data set with healthy cells is on record as “not toxic; also recorded: not observed”.

`COc1cc(NC(C)CCCN)c2ncccc2c1` (stereo not shown) [PQ, primaquine]: the parasitemia in the data set with P. falciparum 3D7 strain (Example 1, FIG. 2) is on record as 24.8%; in the data set with P. falciparum 3D7 strain (Example 2, FIG. 3), 45.8%; in the data set with P. falciparum 3D7 strain (Example 3, FIG. 4) it was 46.4%.
